Data published in ChEMBL document CHEMBL4765295, “Synthesis, pharmacological profile and 2D-QSAR studies of curcumin-amino acid conjugates as potential drug candidates” (Eur J Med Chem, 2020).
Where “and” joins values, the source holds several entries; their conditions need not be identical. Equal values may be shown once.

Test system: Peritoneal macrophage
Assay: Antiinflammatory activity in […] mouse Peritoneal macrophages assessed as inhibition of LPS-induced NO production at 10 uM preincubated for 1 hr followed by LPS stimulation measured after 24 hrs by Griess method relative to control (reference value: 0.0 %)
Type: functional
Parameters: scale not given: the % may be the effect or the level left
Conditions: time 25 hrs

SMILES	Activity [%]
COc1cc(/C=C/C(=O)/C=C(O)/C=C/c2ccc(OC(=O)[C@H](CCSC)NC(=O)OC(C)(C)C)c(OC)c2)ccc1OC(=O)[C@H](CCSC)NC(=O)OC(C)(C)C	40.84

Test system: Mus musculus
Assay: Analgesic activity in albino mouse assessed reduction in acetic acid-induced abdominal writhing by measuring writing reflex at 10 mg/kg, ip pretreated for 1 hr followed by acetic acid challenge and measured starting 5 mins post acetic acid challenge for 10 mins (reference value: 42.4 +/- 1.02)
Type: functional
Conditions: time 75 min, 1.25 h

SMILES	Activity
COc1cc(/C=C/C(=O)/C=C(O)/C=C/c2ccc(OC(=O)[C@H](CCSC)NC(=O)OC(C)(C)C)c(OC)c2)ccc1OC(=O)[C@H](CCSC)NC(=O)OC(C)(C)C	12.3

Test system: Mus musculus
Assay: Analgesic activity in albino mouse assessed protection against acetic acid-induced abdominal writhing at 10 mg/kg, ip pretreated for 1 hr followed by acetic acid challenge and measured starting 5 mins post acetic acid challenge for 10 mins relative to control (reference value: 0 %)
Type: functional
Conditions: time 75 min, 1.25 h

SMILES	Activity [%]
COc1cc(/C=C/C(=O)/C=C(O)/C=C/c2ccc(OC(=O)[C@H](CCSC)NC(=O)OC(C)(C)C)c(OC)c2)ccc1OC(=O)[C@H](CCSC)NC(=O)OC(C)(C)C	71

Test system: Mus musculus
Assay: Analgesic activity in albino mouse assessed protection against acetic acid-induced abdominal writhing at 10 mg/kg, ip pretreated for 1 hr followed by acetic acid challenge and measured starting 5 mins post acetic acid challenge for 10 mins relative to indomethacin
Type: functional
Conditions: time 75 min, 1.25 h

SMILES	Activity [%]
COc1cc(/C=C/C(=O)/C=C(O)/C=C/c2ccc(OC(=O)[C@H](CCSC)NC(=O)OC(C)(C)C)c(OC)c2)ccc1OC(=O)[C@H](CCSC)NC(=O)OC(C)(C)C	115.3

Test system: Mus musculus
Assay: Analgesic activity in albino mouse assessed as forepaw licking/jumping latency time at 10 mg/kg, ip measured after 30 mins by hot plate test (reference value: 5.02 +/- 0.09 sec)
Type: functional
Conditions: 0.5 h

SMILES	Time [s]
COc1cc(/C=C/C(=O)/C=C(O)/C=C/c2ccc(OC(=O)[C@H](CCSC)NC(=O)OC(C)(C)C)c(OC)c2)ccc1OC(=O)[C@H](CCSC)NC(=O)OC(C)(C)C	5.74

Test system: Mus musculus
Assay: Analgesic activity in albino mouse assessed as protection at 10 mg/kg, ip measured after 30 mins by hot plate test (reference value: 0 %)
Type: functional
Conditions: 0.5 h

SMILES	Activity [%]
COc1cc(/C=C/C(=O)/C=C(O)/C=C/c2ccc(OC(=O)[C@H](CCSC)NC(=O)OC(C)(C)C)c(OC)c2)ccc1OC(=O)[C@H](CCSC)NC(=O)OC(C)(C)C	14.3

Test system: Mus musculus
Assay: Analgesic activity in albino mouse assessed as forepaw licking/jumping latency time at 10 mg/kg, ip measured after 60 mins by hot plate test (reference value: 3.42 +/- 0.03 sec)
Type: functional
Conditions: 1 h

SMILES	Time [s]
COc1cc(/C=C/C(=O)/C=C(O)/C=C/c2ccc(OC(=O)[C@H](CCSC)NC(=O)OC(C)(C)C)c(OC)c2)ccc1OC(=O)[C@H](CCSC)NC(=O)OC(C)(C)C	5.84

Test system: Mus musculus
Assay: Analgesic activity in albino mouse assessed as protection at 10 mg/kg, ip measured after 60 mins by hot plate test (reference value: 0 %)
Type: functional
Conditions: 1 h

SMILES	Activity [%]
COc1cc(/C=C/C(=O)/C=C(O)/C=C/c2ccc(OC(=O)[C@H](CCSC)NC(=O)OC(C)(C)C)c(OC)c2)ccc1OC(=O)[C@H](CCSC)NC(=O)OC(C)(C)C	70.8

Test system: Mus musculus
Assay: Analgesic activity in albino mouse assessed as forepaw licking/jumping latency time at 10 mg/kg, ip measured after 90 mins by hot plate test (reference value: 2.72 +/- 0.01 sec)
Type: functional
Conditions: 1.5 h

SMILES	Time [s]
COc1cc(/C=C/C(=O)/C=C(O)/C=C/c2ccc(OC(=O)[C@H](CCSC)NC(=O)OC(C)(C)C)c(OC)c2)ccc1OC(=O)[C@H](CCSC)NC(=O)OC(C)(C)C	4.26

Test system: Mus musculus
Assay: Analgesic activity in albino mouse assessed as protection at 10 mg/kg, ip measured after 90 mins by hot plate test (reference value: 0 %)
Type: functional
Conditions: 1.5 h

SMILES	Activity [%]
COc1cc(/C=C/C(=O)/C=C(O)/C=C/c2ccc(OC(=O)[C@H](CCSC)NC(=O)OC(C)(C)C)c(OC)c2)ccc1OC(=O)[C@H](CCSC)NC(=O)OC(C)(C)C	56.6

Test system: Mus musculus
Assay: Analgesic activity in albino mouse assessed as forepaw licking/jumping latency time at 10 mg/kg, ip measured after 120 mins by hot plate test (reference value: 2.62 +/- 0.06 sec)
Type: functional
Conditions: 2 h

SMILES	Time [s]
COc1cc(/C=C/C(=O)/C=C(O)/C=C/c2ccc(OC(=O)[C@H](CCSC)NC(=O)OC(C)(C)C)c(OC)c2)ccc1OC(=O)[C@H](CCSC)NC(=O)OC(C)(C)C	3.86

Test system: Mus musculus
Assay: Analgesic activity in albino mouse assessed as protection at 10 mg/kg, ip measured after 120 mins by hot plate test (reference value: 0 %)
Type: functional
Conditions: 2 h

SMILES	Activity [%]
COc1cc(/C=C/C(=O)/C=C(O)/C=C/c2ccc(OC(=O)[C@H](CCSC)NC(=O)OC(C)(C)C)c(OC)c2)ccc1OC(=O)[C@H](CCSC)NC(=O)OC(C)(C)C	47.3

Test system: Mus musculus
Assay: Analgesic activity in albino mouse assessed as protection at 10 mg/kg, ip measured after 120 mins by hot plate test relative to indomethacin
Type: functional
Conditions: 2 h

SMILES	Activity [%]
COc1cc(/C=C/C(=O)/C=C(O)/C=C/c2ccc(OC(=O)[C@H](CCSC)NC(=O)OC(C)(C)C)c(OC)c2)ccc1OC(=O)[C@H](CCSC)NC(=O)OC(C)(C)C	112.6

Test system: Staphylococcus aureus
Assay: Antibacterial activity against Staphylococcus aureus ATCC 25923 incubated for 18 hrs by agar dilution method
Type: functional
Conditions: not given

MIC	SMILES
2 µg/mL and 2.41 µM	COc1cc(/C=C/C(=O)/C=C(O)/C=C/c2ccc(OC(=O)[C@H](CCSC)NC(=O)OC(C)(C)C)c(OC)c2)ccc1OC(=O)[C@H](CCSC)NC(=O)OC(C)(C)C

Test system: Streptococcus pyogenes
Assay: Antibacterial activity against Streptococcus pyogenes ATCC 19615 incubated for 18 hrs by agar dilution method
Type: functional
Conditions: not given

MIC	SMILES
2 µg/mL and 2.41 µM	COc1cc(/C=C/C(=O)/C=C(O)/C=C/c2ccc(OC(=O)[C@H](CCSC)NC(=O)OC(C)(C)C)c(OC)c2)ccc1OC(=O)[C@H](CCSC)NC(=O)OC(C)(C)C

Test system: Salmonella typhimurium
Assay: Antibacterial activity against Salmonella typhimurium ATCC 19430 incubated for 18 hrs by agar dilution assay
Type: functional, Salmonella enterica subsp. enterica serovar Typhimurium
Conditions: Salmonella enterica

MIC	SMILES
2 µg/mL and 2.41 µM	COc1cc(/C=C/C(=O)/C=C(O)/C=C/c2ccc(OC(=O)[C@H](CCSC)NC(=O)OC(C)(C)C)c(OC)c2)ccc1OC(=O)[C@H](CCSC)NC(=O)OC(C)(C)C

Test system: Pseudomonas aeruginosa
Assay: Antibacterial activity against Pseudomonas aeruginosa ATCC 27853 incubated for 18 hrs by agar dilution assay
Type: functional
Conditions: not given

MIC	SMILES
1 µg/mL and 1.2 µM	COc1cc(/C=C/C(=O)/C=C(O)/C=C/c2ccc(OC(=O)[C@H](CCSC)NC(=O)OC(C)(C)C)c(OC)c2)ccc1OC(=O)[C@H](CCSC)NC(=O)OC(C)(C)C

Test system: Candida albicans
Assay: Antifungal activity against Candida albicans incubated for 18 to 24 hrs by CLSI method
Type: functional
Conditions: time 18-24 hrs

MIC	SMILES
1 µg/mL and 1.2 µM	COc1cc(/C=C/C(=O)/C=C(O)/C=C/c2ccc(OC(=O)[C@H](CCSC)NC(=O)OC(C)(C)C)c(OC)c2)ccc1OC(=O)[C@H](CCSC)NC(=O)OC(C)(C)C

Test system: not listed separately
Assay: Toxicity in albino mouse assessed as induction of toxic symptoms at 50 to 100 mg/kg, ip measured after 24 hrs
Type: organism-based
Conditions: in vivo, dose 50-100 mg/kg

SMILES	Activity
COc1cc(/C=C/C(=O)/C=C(O)/C=C/c2ccc(OC(=O)[C@H](CCSC)NC(=O)OC(C)(C)C)c(OC)c2)ccc1OC(=O)[C@H](CCSC)NC(=O)OC(C)(C)C	Non-Toxic
